Like-named read-outs stand apart in the source and are kept apart here. Some results are limits rather than exact numbers.

The test system of series [1] is respiratory congestion. The series can be described thus: Treatment of patients with respiratory congestion (emphysema, bronchitis, upper respiratory illness, sinusitis). Format: in vivo, human. To be noted: middle-aged person, chronic sinusitis, one sublingual drop (0.0003 mg) four times daily. As for the experimental part:
A patient who suffered from emphysema and bronchitis, as diagnosed by their physician, was placed on a dose of 1 drop per day (0.0006 mg/drop) of DNA sublingually.
A person diagnosed with chronic upper respiratory illness was treated with methods according to the invention. Previous antibiotic therapy was unsuccessful in treating their condition. […] They have remained symptom free.
A nurse presented with a severe upper respiratory infection and unproductive respiratory congestion. […] Expectoration was improved and the patient's illness resolved after 4.5 days and no congestion recurred.
A person presented with chronic sinusitis. Four drops of DNA per day were administered.
A person presented with unresolved respiratory congestion. […] The patient was then prescribed four drops of DNA (0.0006 mg/drop) per day.
A person with unproductive upper respiratory congestion was placed on 4 drops of DNA (0.0006 mg/drop) per day. […] In this case, therapy was supplemented with an over-the-counter expectorant.
A person with acute and chronic respiratory disease due to exposure to toxic corrosive materials was treated with methods according to the invention. Prior to such treatment, symptoms, including chronic rhinorrhea, chest congestion and chronic respiratory infections were treated with numerous courses of antibiotics without success. […]

Series [2] has as its system cystic fibrosis. The series can be described thus: Treatment of cystic fibrosis patients with DNA drops. Format: in vivo, human. To be noted: person, advanced cystic fibrosis, 0.0003 mg per sublingual drop, four times daily.
In series [3] the test system is heaves (equine COPD). Format: in vivo, horse. The protocol: According to this example, a quarter horse mare, at least 20 years of age, suffering from symptoms of heaves (equine COPD) for over ten years was treated subcutaneously twice daily with synthetic DNA. Each dose contained 0.0003 mg of poly(dA):poly(dT) synthetic DNA (Sigma) diluted in phenolated saline. […] Specifically, the horse was no longer coughing, nostrils were not flaring, and breathing was less labored. After one week of administering two doses per day, administration was reduced to once per day for two weeks, then given only on an “as needed” basis.
According to this example, a 15 year old gelding (male horse) suffering from heaves (equine COPD) for over two years was treated with synthetic DNA as described in example XXXIX.

Turning to poly(dA):poly(dT), in series [1], the overall response entry is recorded as “improved overall response, including the absence of headaches” and the “time to improvement in condition” value was at most 48 h. In series [2], the “therapeutic activity after change to synthetic DNA” value is given as “no decrease in therapeutic activity”. For the same substance, the improvement entry in series [3] (15 year old gelding, treated as in example XXXIX) is reported as “Improvement was noted within the first three days”. In addition, the adverse effects entry in series [3] (in vivo) is listed as “no adverse effects noted”. Moreover, in series [3] (quarter horse mare, 0.0003 mg subcutaneously twice daily, thirty-six hours after treatment began), the “condition of the horse” value is “significantly improved”.
With poly(dG):poly(dC), in series [2], the “therapeutic activity after change to synthetic DNA” value was “same results”. For the same substance, the “condition of the horse” value in series [3] (15 year old gelding) is on record as “significant improvement”; in series [3] (quarter horse mare, identical treatment) it was “significant improvement”.

The record behind these values is patent US20030032614A1, “Method of treating respiratory distress using synthetic polynucleic acids” (priority 1995, published 2003).
